Reference: the SangsterLogP compilation

assay: method code SF-TN, from DOI: 10.3891/acta.chem.scand.05-0774

Structure (SMILES)	logP
O=C(O)CCCCCCCC(=O)O	1.59
CCC(Br)C(=O)O (centres undefined)	1.42
CC(Br)C(=O)O (centres undefined)	0.92
O=C(O)CBr	0.41
CC(C)(O)C(=O)O	-0.36
O=C(O)CC(O)C(=O)O (centres undefined)	-1.26

assay: method code SF-CR, from DOI: 10.3891/acta.chem.scand.05-0774

Structure (SMILES)	logP
COC(C)=O	0.18
COCOC	0
CC(O)C(C)O (centres undefined)	-0.92

assay: not given

Structure (SMILES)	logP
NCCO	-1.31
C1CNCCN1	-1.17

More lines, now with the values ahead:

logP	Structure (SMILES)
-0.96	CC(O)CN (centres undefined)
-1.43	OCCNCCO
-0.82	CC(O)CNCC(C)O (centres undefined)
